Data taken from patent US9273006B2, “Anabolic compounds for treating and preventing bone loss diseases” (SYDDANSK UNIVERSITET, priority 2012, dated 2016).
Where two headings read alike, the source gives them in different places.

Test system: hMSC-TERT
Conditions: 6 days after induction, hMSC-TERT
[1] = 1 μM inhibitor in osteogenic inducing media
[2] = 10 μM inhibitor in osteogenic inducing media

For CCCCCCCCCCCCCCCC(=O)OC(CC(=O)O)C[N+](C)(C)C.[Cl-] (racemic) [Palmitoyl-DL-carnitine Cl], the “Relative ALP activity” value [1] was 0.9966 and the “Relative ALP activity” value [2] was 0.9612.
In the case of Nc1ncc2[nH]cnc2n1 [2-Aminopurine], the “Relative ALP activity” value [1] was 1.017 and the “Relative ALP activity” value [2] was 0.6855.
For Nc1ncnc2c1c(I)cn2[C@@H]1O[C@H](CO)[C@@H](O)[C@H]1O [5-Iodotubercidin], the “Relative ALP activity” value [1] was 1.035 and the “Relative ALP activity” value [2] was “Toxic”.
With N#CC(C#N)=Cc1ccc([N+](=O)[O-])c(O)c1 [AG-126] the “Relative ALP activity” value [1] was 0.9053 and the “Relative ALP activity” value [2] was 1.156.
In the case of N#CC(=Cc1ccc2[nH]ccc2c1)C(N)=C(C#N)C#N [AG-370], the “Relative ALP activity” value [1] was 1.057 and the “Relative ALP activity” value [2] was 0.7902.
N#C/C(=C/c1ccc(O)c(O)c1)C(=O)NCc1ccccc1 [AG-490] was tested, and the “Relative ALP activity” value [1] was 0.9657 and the “Relative ALP activity” value [2] was 0.3482.
N#C/C(=C\c1ccc(O)c(O)c1)C(=O)Nc1ccccc1 [AG-494] was tested, and the “Relative ALP activity” value [1] was 0.8788 and the “Relative ALP activity” value [2] was 0.33.
COc1cc(/C=C(\C#N)C(N)=O)cc(CSc2nc3ccccc3s2)c1O [AG-825] was tested, and the “Relative ALP activity” value [1] was 0.8754 and the “Relative ALP activity” value [2] was 1.056.
CC(C)(C)c1cc(/C=C(\C#N)C(N)=S)cc(C(C)(C)C)c1O [AG-879] was tested, and the “Relative ALP activity” value [1] was 0.6801 and the “Relative ALP activity” value [2] was 0.7467.
With COc1cc2ncc(-c3ccccc3)nc2cc1OC [AG-1296] the “Relative ALP activity” value [1] was 0.7685 and the “Relative ALP activity” value [2] was 0.5376.
For O=c1cc(-c2ccc(O)cc2)oc2cc(O)cc(O)c12 [Apigenin], the “Relative ALP activity” value [1] was 0.9029 and the “Relative ALP activity” value [2] was 0.4027.
Cc1ccc(S(=O)(=O)/C=C/C#N)cc1 [BAY 11-7082] was tested, and the “Relative ALP activity” value [1] was 0.9356 and the “Relative ALP activity” value [2] was “Toxic”.
With O=C(O)c1ccc2nc(-c3ccccc3)c(-c3ccccc3)nc2c1 [BML-257] the “Relative ALP activity” value [1] was 0.8443 and the “Relative ALP activity” value [2] was 0.7884.
With CC(C)c1cnc(NC(=O)Cc2ccccc2)s1 [BML-259] the “Relative ALP activity” value [1] was 1.001 and the “Relative ALP activity” value [2] was 0.7259.
With OC[C@H]1O[C@@H](n2cnc3cc(Cl)c(Cl)cc32)[C@H](O)[C@@H]1O [DRB] the “Relative ALP activity” value [1] was 0.9718 and the “Relative ALP activity” value [2] was 0.5043.
For O=c1c(-c2ccc(O)cc2)coc2cc(O)ccc12 [Daidzein], the “Relative ALP activity” value [1] was 1.14 and the “Relative ALP activity” value [2] was 1.025.
In the case of COc1c(C=O)c(O)cc2c1C(=O)c1ccccc1C2=O [Damnacanthal], the “Relative ALP activity” value [1] was 0.8711 and the “Relative ALP activity” value [2] was 0.3273.
For COC(=O)/C=C/c1cc(O)ccc1O [Erbstatin analog], the “Relative ALP activity” value [1] was 0.8892 and the “Relative ALP activity” value [2] was 0.7022.
CN(C)CCCn1cc(C2=C(c3c[nH]c4ccccc34)C(=O)NC2=O)c2ccccc21 [GF 109203X] was tested, and the “Relative ALP activity” value [1] was 0.3532 and the “Relative ALP activity” value [2] was “Toxic”.
O=C1Nc2ccc(I)cc2/C1=C/c1cc(Br)c(O)c(Br)c1 [GW 5074] was tested, and the “Relative ALP activity” value [1] was 0.7969 and the “Relative ALP activity” value [2] was 0.5773.
With O=c1c(-c2ccc(O)cc2)coc2cc(O)cc(O)c12 [Genistein] the “Relative ALP activity” value [1] was 1.215 and the “Relative ALP activity” value [2] was 0.7692.
With CC1CNCCN1S(=O)(=O)c1cccc2cnccc12 (centres unmarked) [H-7] the “Relative ALP activity” value [1] was 1.087 and the “Relative ALP activity” value [2] was 0.9015.
With NCCNS(=O)(=O)c1cccc2cnccc12 [H-9] the “Relative ALP activity” value [1] was 0.9547 and the “Relative ALP activity” value [2] was 0.9783.
In the case of O=S(=O)(NCCNC/C=C/c1ccc(Br)cc1)c1cccc2cnccc12 [H-89], the “Relative ALP activity” value [1] was 0.8924 and the “Relative ALP activity” value [2] was 0.3847.
In the case of NC(N)=NCCNS(=O)(=O)c1cccc2cnccc12 [HA-1004], the “Relative ALP activity” value [1] was 0.9706 and the “Relative ALP activity” value [2] was 0.9424.
With O=S(=O)(c1cccc2cnccc12)N1CCCNCC1 [HA-1077] the “Relative ALP activity” value [1] was 1.02 and the “Relative ALP activity” value [2] was 0.908.
For COCc1cc(O)c(O)c(O)c1-c1c(COC)cc(O)c(O)c1O [HBDDE], the “Relative ALP activity” value [1] was 0.8861 and the “Relative ALP activity” value [2] was 0.7296.
O=C(O)c1cc(NCc2cc(O)ccc2O)ccc1O [HDBA] was tested, and the “Relative ALP activity” value [1] was 0.8708 and the “Relative ALP activity” value [2] was 0.9836.
O=P(O)(O)C(O)c1ccc2ccccc2c1 (centres unmarked) [HNMPA] was tested, and the “Relative ALP activity” value [1] was 0.864 and the “Relative ALP activity” value [2] was 0.8557.
With Cc1cc(O)c2c(=O)c3c(O)cc(O)c4c5c(O)cc(O)c6c(=O)c7c(O)cc(C)c8c1c2c(c34)c(c78)c65 [Hypericin] the “Relative ALP activity” value [1] was 0.8534.
In the case of O=C1Nc2ccccc2/C1=C1/Nc2ccccc2C1=O [Indirubin], the “Relative ALP activity” value [1] was 0.3571 and the “Relative ALP activity” value [2] was 0.18.
CN([C@@H](Cc1ccc(OS(=O)(=O)c2cccc3cnccc23)cc1)C(=O)N1CCN(c2ccccc2)CC1)S(=O)(=O)c1cccc2cnccc12 [KN-62] was tested, and the “Relative ALP activity” value [1] was 0.956 and the “Relative ALP activity” value [2] was 0.9222.
For COc1ccc(S(=O)(=O)N(CCO)c2ccccc2CN(C)C/C=C/c2ccc(Cl)cc2)cc1 [KN-93], the “Relative ALP activity” value [1] was 0.7347 and the “Relative ALP activity” value [2] was 0.6802.
In the case of O=C1Cc2c([nH]c3ccc(Br)cc23)-c2ccccc2N1 [Kenpaullone], the “Relative ALP activity” value [1] was 0.5044 and the “Relative ALP activity” value [2] was 0.2055.
With C/C(O)=C(\C#N)C(=O)Nc1cc(Br)ccc1Br [LFM-A13] the “Relative ALP activity” value [1] was 0.7381 and the “Relative ALP activity” value [2] was 0.9154.
In the case of O=c1cc(N2CCOCC2)oc2c(-c3ccccc3)cccc12 [LY 294002], the “Relative ALP activity” value [1] was 0.8628 and the “Relative ALP activity” value [2] was 0.439.
For O=C(O)c1cc(N(Cc2ccccc2O)Cc2cc(O)ccc2O)ccc1O [Lavendustin A], the “Relative ALP activity” value [1] was 0.8641 and the “Relative ALP activity” value [2] was 0.4935.
In the case of O=S(=O)(c1cccc2c(I)cccc12)N1CCCNCC1 [ML-7], the “Relative ALP activity” value [1] was 1.031 and the “Relative ALP activity” value [2] was 0.9564.
For O=S(=O)(c1cccc2c(Cl)cccc12)N1CCCNCC1 [ML-9], the “Relative ALP activity” value [1] was 0.9822 and the “Relative ALP activity” value [2] was 0.6879.
In the case of CC(C)n1cnc2c(NCc3ccccc3)nc(NCCO)nc21 [N9-Isopropyl-olomoucine], the “Relative ALP activity” value [1] was 1.128 and the “Relative ALP activity” value [2] was 0.6666.
For Cn1cnc2c(NCc3ccccc3)nc(NCCO)nc21 [Olomoucine], the “Relative ALP activity” value [1] was 1.142 and the “Relative ALP activity” value [2] was 0.5408.
COc1cccc(-c2cc(=O)c3ccccc3o2)c1N [PD-98059] was tested, and the “Relative ALP activity” value [1] was 0.5617 and the “Relative ALP activity” value [2] was 0.6017.
Cc1ccc(-c2nn(C(C)(C)C)c3ncnc(N)c23)cc1 [PP1] was tested, and the “Relative ALP activity” value [1] was 0.9626 and the “Relative ALP activity” value [2] was 0.5665.
With CC(C)(C)n1nc(-c2ccc(Cl)cc2)c2c(N)ncnc21 [PP2] the “Relative ALP activity” value [1] was 0.8276 and the “Relative ALP activity” value [2] was 0.4269.
With Oc1cc(O)cc(/C=C/c2ccc(O)c(O)c2)c1 [Piceatannol] the “Relative ALP activity” value [1] was 0.783 and the “Relative ALP activity” value [2] was 0.4885.
For O.O.O=c1c(O)c(-c2ccc(O)c(O)c2)oc2cc(O)cc(O)c12 [Quercetin dihydrate], the “Relative ALP activity” value [1] was 1.001 and the “Relative ALP activity” value [2] was 0.8354.
With N#C/C(=C\c1cc(Cl)cc(Cl)c1)c1cccnc1 [RG-14620] the “Relative ALP activity” value [1] was 0.8302 and the “Relative ALP activity” value [2] was 1.024.
CO[C@H]1C[C@@H]2CC[C@@H](C)[C@@](O)(O2)C(=O)C(=O)N2CCCC[C@H]2C(=O)O[C@H]([C@H](C)C[C@@H]2CC[C@@H](O)[C@H](OC)C2)CC(=O)[C@H](C)/C=C(\C)[C@@H](O)[C@@H](OC)C(=O)[C@H](C)C[C@H](C)/C=C/C=C/C=C/1C [Rapamycin] was tested, and the “Relative ALP activity” value [1] was 0.509 and the “Relative ALP activity” value [2] was 0.6057.
In the case of Cn1cc(C2=C(c3cn(CCCSC(=N)N)c4ccccc34)C(=O)NC2=O)c2ccccc21 [Ro 31-8220], the “Relative ALP activity” value [1] was 0.3607 and the “Relative ALP activity” value [2] was “Toxic”.
In the case of CC[C@H](CO)Nc1nc(NCc2ccccc2)c2ncn(C(C)C)c2n1 [Roscovitine], the “Relative ALP activity” value [1] was 0.9865 and the “Relative ALP activity” value [2] was 0.3918.
With CC(=O)c1c(O)c(C)c(O)c(Cc2c(O)c3c(c(C(=O)/C=C/c4ccccc4)c2O)OC(C)(C)C=C3)c1O [Rottlerin] the “Relative ALP activity” value [1] was 0.3874 and the “Relative ALP activity” value [2] was “Toxic”.
Oc1ccc(-c2nc(-c3ccc(F)cc3)c(-c3ccncc3)[nH]2)cc1 [SB-202190] was tested, and the “Relative ALP activity” value [1] was 0.7708 and the “Relative ALP activity” value [2] was 0.2703.
With C[S+]([O-])c1ccc(-c2nc(-c3ccc(F)cc3)c(-c3ccncc3)[nH]2)cc1 (centres unmarked) [SB-203580] the “Relative ALP activity” value [1] was 0.824 and the “Relative ALP activity” value [2] was 0.458.
For Oc1c2ccccc2c2c3c(cccc13)N=N2 [SP 600125], the “Relative ALP activity” value [1] was 0.5978 and the “Relative ALP activity” value [2] was 0.2913.
CC(C)c1cc(/C=C(\C#N)C(=O)NCCCc2ccccc2)cc(C(C)C)c1O [SU1498] was tested, and the “Relative ALP activity” value [1] was 0.8711 and the “Relative ALP activity” value [2] was 0.7853.
For CN(C)c1ccc(/C=C2\C(=O)Nc3ccccc32)cc1 [SU 4312], the “Relative ALP activity” value [1] was 0.7481 and the “Relative ALP activity” value [2] was 0.5349.
For CCCCCCCCCCCCC/C=C/[C@@H](O)[C@@H](N)CO [Sphingosine], the “Relative ALP activity” value [1] was 1.195 and the “Relative ALP activity” value [2] was “Toxic”.
CN[C@@H]1C[C@H]2O[C@@](C)([C@@H]1OC)n1c3ccccc3c3c4c(c5c6ccccc6n2c5c31)C(=O)NC4 [Staurosporine] was tested, and the “Relative ALP activity” value [1] was “TOXIC” and the “Relative ALP activity” value [2] was “Toxic”.
With CC1=C(O)C(=O)[C@@H]2O[C@@H]2C1=O [Terreic acid] the “Relative ALP activity” value [1] was 0.2721 and the “Relative ALP activity” value [2] was 0.338.
For CC(C)(C)c1cc(C=C(C#N)C#N)cc(C(C)(C)C)c1O [Tyrphostin9], the “Relative ALP activity” value [1] was 0.3388 and the “Relative ALP activity” value [2] was “Toxic”.
N#CC(C#N)=Cc1ccc(O)c(O)c1 [Tyrphostin 23] was tested, and the “Relative ALP activity” value [1] was 0.9904 and the “Relative ALP activity” value [2] was 0.7067.
In the case of N#CC(C#N)=Cc1cc(O)c(O)c(O)c1 [Tyrphostin 25], the “Relative ALP activity” value [1] was 0.9397 and the “Relative ALP activity” value [2] was 0.8233.
With N#C/C(=C\c1ccc(O)c(O)c1)C(N)=O [Tyrphostin 46] the “Relative ALP activity” value [1] was 1.179 and the “Relative ALP activity” value [2] was 0.9029.
With N#C/C(=C\c1ccc(O)c(O)c1)C(N)=S [Tyrphostin 47] the “Relative ALP activity” value [1] was 0.901 and the “Relative ALP activity” value [2] was 1.005.
In the case of N#CC(C#N)=C(N)/C(C#N)=C/c1cc(O)c(O)c(O)c1 [Tyrphostin 51], the “Relative ALP activity” value [1] was 0.8997 and the “Relative ALP activity” value [2] was 0.8566.
N#CC(C#N)=Cc1cc(O)c(O)c([N+](=O)[O-])c1 [Tyrphostin AG 1288] was tested, and the “Relative ALP activity” value [1] was 0.8684 and the “Relative ALP activity” value [2] was 0.802.
